PMC7419507, “In vitro Cas9-assisted editing of modular polyketide synthase genes to produce desired natural product derivatives” (Nature Communications, 2020)

Assay: Stability of the compound during isolation
Type: physicochemical
Settings: isolation from culture
Excerpt: Authors' possible answers (A) to the comments (C) raised by Reviewer #2.
This manuscript by Kudo et al. describes the combined application of in vitro CRIPS-Cas9 and Gibson assembly technology to edit type 1 modular PKSs. Authors […]
module deletion/insertion, reductive domains, stereochemistry of beta-hydroxyl group, and double modification (ER and KR) using rapamycin PKS as a model system. Although in vitro CIRPR/Cas9 system for refactoring of biosynthetic gene clusters in Streptomyces has been reported previously (mBio 6(6):e01714-15), this manuscript may be the first report to use CIRPR/Cas9 technology to edit the large modular PKSs.
We thank Reviewer #2 for the positive evaluation of our technology. Since the engineering […]
(C-1) Although the method used in this study seems promising to edit PKS efficiently, authors should present the complete structural data (e.g. 1D and 2D NMR) of all […]
(A-1) We have added NMR data for compounds 10, 11 , 12, 13, 15 and 16, whose yields were high enough allow their analysis by NMR. In addition, we confirmed the quantitative analysis of all compounds (Supplementary Table 3). […]
smaller m/z than that of 5 (Figs. A(d) and (e)). Multiple degradation products were detected (Fig. B) and those peaks were not detectable from crude extract before isolation.
We measured a NMR spectrum of the collected sample (ca 0.8 mg), however, the sample […]

Stability during isolation, in words | Structure (SMILES)
instability | CO[C@H]1C[C@@H]2CC[C@@H](C)[C@@](O)(O2)C(=O)C(=O)N2CCCC[C@H]2C(=O)O[C@H]([C@H](C)C[C@@H]2CC[C@@H](O)[C@H](OC)C2)CC(=O)[C@H](C)/C=C(\C)[C@@H](O)[C@@H](OC)C(=O)[C@H](C)CC/C=C/C=C/C=C/1C [Compound 5, 23-demethyl rapamycin]
so unstable that we could not isolate it | CO[C@@H]1C[C@H](C[C@@H](C)[C@@H]2CC(=O)[C@H](C)/C=C(\C)[C@@H](O)CC(=O)[C@H](C)/C=C(C)/C=C/C=C/C=C(\C)[C@H](O)C[C@@H]3CC[C@@H](C)[C@@](O)(O3)C(=O)C(=O)N3CCCC[C@H]3C(=O)O2)CC[C@H]1O [Compound 19, 27-demethoxy-16-O-demethyl-23,24-didehydro-rapamycin]
